The values below come from PMC9644403, “L-type Amino Acid Transporter 1 Utilizing Ferulic Acid Derivatives Show Increased Drug Delivery in the Mouse Pancreas Along with Decreased Lipid Peroxidation and Prostaglandin Production” (Molecular Pharmaceutics, 2022).

The series has as its system human umbilical vein endothelial cells (HUVECs). As to the kind of experiment: HUVEC viability, WST-1 assay. Type of series: cell-based. As to conditions: WST-1, 24 h. As for the experimental part:
As a third in vitro toxicity study in the human blood circulation system, the effects of FA, D1, and D2 on the viability of human umbilical vein endothelial cells (HUVECs; RRID CVCL_2959; Lonza, Italy; Cat. no. CC-2517) were determined using the WST-1 assay (Takara, Takara Bio Europe, Europe, Saint-Germain-en-Laye, France), according to the previously published protocol.[32] Briefly, the cells were cultured according to the manufacturer’s guidelines with the following ingredients: EGM-2-medium + bullet kit (Lonza, Clonetics, Italy), accutase (Sigma-Aldrich, Germany), and HEPES-buffered saline solution (Lonza, Basel, Switzerland). For the assay, the cells were seeded at the density of 7 500 HUVECs per well on 96-well plates and cultured for 24 h to obtain 70% confluency. Subsequently, the cells were treated with studied compounds in multiplicate (n = 6–8) at the concentration of 0.1–100 μM in the growth medium for 24 h (37 °C, 5% CO2). Cells with untreated growth medium represented 100% viability, whereas cells treated with medium containing 0.5% (v/v) methanol served as a negative control for drug solvent. After treating cells for 24 h, medium was removed, the cells were washed with the culture medium (100 μl/well), and 100 μL of WST-1 reagent dissolved in culture medium was added into each well. The plates were incubated at 37 °C with 5% CO2 for 2 h, after which absorbance values were measured at the 450 nm wavelength using a microplate reader (iMARK, Bio-Rad). Additionally, the effects of treatments on HUVEC morphology were examined microscopically using a phase-contrast Opta-Tech inverted microscope equipped with OptaView 7 software (Opta-Tech, Warsaw, Poland) for image analysis.
(In general: Tetrazolium assays rely on reduction of a dye to a coloured formazan, in cell work by metabolically active cells.)

With `COc1cc(C=CC(=O)O)ccc1O` [ferulic acid, 4-hydroxy-3-methoxycinnamic acid], the “effect on HUVEC viability at 1–50 μM” value is given as “no statistically significant effect”.
